system: MCH receptors; assay: MCH receptor activity class (method not given); conditions: MCH receptor; class by percent of control at 10^-7 M or IC50

Compound	class
CCC(Oc1ccccc1)C(=O)N[C@H]1CC[C@@H](Nc2cc(N(C)C)c3ccccc3n2)CC1 (relative stereo) [compound 48, N-(cis-4-{[4-(dimethylamino)quinolin-2-yl]amino}cyclohexyl)-2-phenoxybutanamide]	1 (Class 1: The value of percent of control at 10^−7 M was less than 40% or the value of IC50 was less than 50 nM.)
CC(Oc1ccccc1)C(=O)N[C@H]1CC[C@@H](Nc2cc(N(C)C)c3ccccc3n2)CC1 (relative stereo) [compound 49, N-(cis-4-{[4-(dimethylamino)quinolin-2-yl]amino}cyclohexyl)-2-phenoxypropanamide]	1 (Class 1: The value of percent of control at 10^−7 M was less than 40% or the value of IC50 was less than 50 nM.)
CCC(C(=O)N[C@H]1CC[C@@H](Nc2cc(N(C)C)c3ccccc3n2)CC1)c1ccccc1 (relative stereo) [compound 66]	3 (Class 3 The value of percent of control at 10^−7 M was more than 60% or the value of IC50 was more than 200 nM.)
CC(=O)OC(C(=O)N[C@H]1CC[C@@H](Nc2cc(N(C)C)c3ccccc3n2)CC1)c1ccccc1 (relative stereo) [compound 92]	3 (Class 3 The value of percent of control at 10^−7 M was more than 60% or the value of IC50 was more than 200 nM.)
CCC(Oc1ccccc1)C(=O)NC[C@H]1CC[C@@H](Nc2cc(N(C)C)c3ccccc3n2)CC1 (relative stereo) [compound 175, N-[(cis-4-{[4-(dimethylamino)quinolin-2-yl]amino}cyclohexyl)methyl]-2-phenoxybutanamide]	3 (Class 3 The value of percent of control at 10^−7 M was more than 60% or the value of IC50 was more than 200 nM.)
CC(Oc1ccccc1)C(=O)NC[C@H]1CC[C@@H](Nc2cc(N(C)C)c3ccccc3n2)CC1 (relative stereo) [compound 176, N-[(cis-4-{[4-(dimethylamino)quinolin-2-yl]amino}cyclohexyl)methyl]-2-phenoxypropanamide]	3 (Class 3 The value of percent of control at 10^−7 M was more than 60% or the value of IC50 was more than 200 nM.)
CCC(C(=O)NC[C@H]1CC[C@@H](Nc2cc(N(C)C)c3ccccc3n2)CC1)c1ccccc1 (relative stereo) [compound 193]	3 (Class 3 The value of percent of control at 10^−7 M was more than 60% or the value of IC50 was more than 200 nM.)

same assay, conditions: class 1-3 by percent of control at 10^-7 M or IC50

Compound	class
CCC(Oc1ccccc1)C(=O)N[C@H]1CC[C@@H](Nc2nc3c(c(N(C)C)n2)CCCC3)CC1 (relative stereo) [compound 484]	1 (Class 1: The value of percent of control at 10^−7 M was less than 40% or the value of IC50 was less than 50 nM.)
CC(Oc1ccccc1)C(=O)N[C@H]1CC[C@@H](Nc2nc3c(c(N(C)C)n2)CCCC3)CC1 (relative stereo) [compound 485]	1 (Class 1: The value of percent of control at 10^−7 M was less than 40% or the value of IC50 was less than 50 nM.)
CCC(C(=O)N[C@H]1CC[C@@H](Nc2nc3c(c(N(C)C)n2)CCCC3)CC1)c1ccccc1 (relative stereo) [compound 502]	3 (Class 3 The value of percent of control at 10^−7 M was more than 60% or the value of IC50 was more than 200 nM.)
CC(=O)OC(C(=O)N[C@H]1CC[C@@H](Nc2nc3c(c(N(C)C)n2)CCCC3)CC1)c1ccccc1 (relative stereo) [compound 528]	1 (Class 1: The value of percent of control at 10^−7 M was less than 40% or the value of IC50 was less than 50 nM.)

same assay, conditions: class by percent of control at 10^-7 M or IC50

Compound	class
4-({[(cis-4-{[4-(dimethylamino)pyrimidin-2-yl]amino}-cyclohexyl)methyl]amino}methyl)-2,6-dimethoxyphenol [compound 1254]	1 (Class 1: The value of percent of control at 10^−7 M was less than 40% or the value of IC50 was less than 50 nM.)
CCC(Oc1ccccc1)C(=O)N[C@H]1CC[C@@H](Nc2nccc(N(C)C)n2)CC1 (relative stereo) [compound 266, N-(cis-4-{[4-(dimethylamino)pyrimidin-2-yl]amino}cyclohexyl)-2-phenoxybutanamide]	2 (Class 2: The value of percent of control at 10^−7 M was from 40% to 60% or the value of IC′50 was from 50 nM to 200 nM.)
CC(Oc1ccccc1)C(=O)N[C@H]1CC[C@@H](Nc2nccc(N(C)C)n2)CC1 (relative stereo) [compound 267]	3 (Class 3 The value of percent of control at 10^−7 M was more than 60% or the value of IC50 was more than 200 nM.)
CCC(C(=O)N[C@H]1CC[C@@H](Nc2nccc(N(C)C)n2)CC1)c1ccccc1 (relative stereo) [compound 284]	3 (Class 3 The value of percent of control at 10^−7 M was more than 60% or the value of IC50 was more than 200 nM.)
CC(=O)OC(C(=O)N[C@H]1CC[C@@H](Nc2nccc(N(C)C)n2)CC1)c1ccccc1 (relative stereo) [compound 310]	3 (Class 3 The value of percent of control at 10^−7 M was more than 60% or the value of IC50 was more than 200 nM.)
CCC(Oc1ccccc1)C(=O)NC[C@H]1CC[C@@H](Nc2nccc(N(C)C)n2)CC1 (relative stereo) [compound 393, N-[(cis-4-{[4-(dimethylamino)pyrimidin-2-yl]amino}cyclohexyl)methyl]-2-phenoxybutanamide]	2 (Class 2: The value of percent of control at 10^−7 M was from 40% to 60% or the value of IC′50 was from 50 nM to 200 nM.)
CC(Oc1ccccc1)C(=O)NC[C@H]1CC[C@@H](Nc2nccc(N(C)C)n2)CC1 (relative stereo) [compound 394]	3 (Class 3 The value of percent of control at 10^−7 M was more than 60% or the value of IC50 was more than 200 nM.)
CCC(C(=O)NC[C@H]1CC[C@@H](Nc2nccc(N(C)C)n2)CC1)c1ccccc1 (relative stereo) [compound 411, N-[(cis-4-{[4-(dimethylamino)pyrimidin-2-yl]amino}cyclohexyl)methyl]-2-phenylbutanamide]	1 (Class 1: The value of percent of control at 10^−7 M was less than 40% or the value of IC50 was less than 50 nM.)
CCC(Oc1ccccc1)C(=O)NC[C@H]1CC[C@@H](Nc2nc3c(c(N(C)C)n2)CCCC3)CC1 (relative stereo) [compound 610]	3 (Class 3 The value of percent of control at 10^−7 M was more than 60% or the value of IC50 was more than 200 nM.)
CC(Oc1ccccc1)C(=O)NC[C@H]1CC[C@@H](Nc2nc3c(c(N(C)C)n2)CCCC3)CC1 (relative stereo) [compound 611]	3 (Class 3 The value of percent of control at 10^−7 M was more than 60% or the value of IC50 was more than 200 nM.)
CCC(C(=O)NC[C@H]1CC[C@@H](Nc2nc3c(c(N(C)C)n2)CCCC3)CC1)c1ccccc1 (relative stereo) [compound 628]	3 (Class 3 The value of percent of control at 10^−7 M was more than 60% or the value of IC50 was more than 200 nM.)
CN(C)c1cc(N[C@H]2CC[C@@H](NC(=O)C(Cc3ccccc3)c3ccccc3)CC2)nc2ccccc12 (relative stereo) [compound 678]	3 (Class 3 The value of percent of control at 10^−7 M was more than 60% or the value of IC50 was more than 200 nM.)
CN(C)c1cc(N[C@H]2CC[C@@H](NC(=O)C3CC(=O)c4ccccc43)CC2)nc2ccccc12 (relative stereo) [compound 684]	3 (Class 3 The value of percent of control at 10^−7 M was more than 60% or the value of IC50 was more than 200 nM.)
